Measured values as given in patent US10421778B2, “Isoform-selective lysine deacetylase inhibitors” (WASHINGTON UNIVERSITY, priority 2015, dated 2019).
Read-outs that look alike come from different tables or passages of the source.

Legend:
recombinant human KDAC3 = molecular target: T1, recombinant human KDAC3 (Homo sapiens, UniProt O15379); assay: KDAC inhibition assay, Caliper EZ Reader II; assay type: biochemical; settings: for KDAC Inhibition Activity KDAC3 (% inhibition): % inhibition at 30 μM
T1 construct: purchased BPS Bioscience
T1 sequence (O15379 whole entry): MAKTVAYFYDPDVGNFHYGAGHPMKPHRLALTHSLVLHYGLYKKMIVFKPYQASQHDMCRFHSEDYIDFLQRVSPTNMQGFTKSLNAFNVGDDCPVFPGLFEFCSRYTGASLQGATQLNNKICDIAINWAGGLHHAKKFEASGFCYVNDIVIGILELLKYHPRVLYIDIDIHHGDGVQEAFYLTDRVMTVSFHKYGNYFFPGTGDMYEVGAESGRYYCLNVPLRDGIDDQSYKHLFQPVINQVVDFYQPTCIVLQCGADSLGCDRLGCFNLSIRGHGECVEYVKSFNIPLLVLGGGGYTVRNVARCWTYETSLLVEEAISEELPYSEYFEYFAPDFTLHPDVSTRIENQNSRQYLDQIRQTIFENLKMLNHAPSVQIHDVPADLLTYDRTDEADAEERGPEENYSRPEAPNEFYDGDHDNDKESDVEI
T1 sequence (Q9Y618 395-489 partner limits assumed): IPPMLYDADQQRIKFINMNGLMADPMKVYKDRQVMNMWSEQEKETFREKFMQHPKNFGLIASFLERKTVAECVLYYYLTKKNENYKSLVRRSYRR

[1] = system: JLAT 10.6 cells, which have HIV-1-GFP stably integrated; assay: Reactivation of HIV from latency in JLAT 10.6 cells (GFP, FACS); assay type: cell-based; settings: J-Lat 10.6, 24 h, read-out: EC50 in reactivating HIV from latency
Method: JLAT 10.6 cells, which have HIV-1-GFP stably integrated, were incubated with the indicated compounds for 24 hours. […] Upon stimulation with an appropriate agent, they can produce HIV as measured by GFP recognition with fluorescent-activated cell sorting (FACS). Cells were fixed and FACS performed for GFP as a surrogate for HIV production using TNF alpha as positive control. Largazoles are SDL256, JMF 1080, and SDL148. Relative activation is normalized to TNF alpha.

recombinant human KDAC6 = molecular target: T2, recombinant human KDAC6 (Homo sapiens, UniProt Q9UBN7); assay: KDAC inhibition assay, Caliper EZ Reader II; assay type: biochemical; settings: for KDAC Inhibition Activity KDAC6 (% inhibition): % inhibition at 30 μM
T2 construct: purchased BPS Bioscience
T2 sequence (Q9UBN7 1-1215): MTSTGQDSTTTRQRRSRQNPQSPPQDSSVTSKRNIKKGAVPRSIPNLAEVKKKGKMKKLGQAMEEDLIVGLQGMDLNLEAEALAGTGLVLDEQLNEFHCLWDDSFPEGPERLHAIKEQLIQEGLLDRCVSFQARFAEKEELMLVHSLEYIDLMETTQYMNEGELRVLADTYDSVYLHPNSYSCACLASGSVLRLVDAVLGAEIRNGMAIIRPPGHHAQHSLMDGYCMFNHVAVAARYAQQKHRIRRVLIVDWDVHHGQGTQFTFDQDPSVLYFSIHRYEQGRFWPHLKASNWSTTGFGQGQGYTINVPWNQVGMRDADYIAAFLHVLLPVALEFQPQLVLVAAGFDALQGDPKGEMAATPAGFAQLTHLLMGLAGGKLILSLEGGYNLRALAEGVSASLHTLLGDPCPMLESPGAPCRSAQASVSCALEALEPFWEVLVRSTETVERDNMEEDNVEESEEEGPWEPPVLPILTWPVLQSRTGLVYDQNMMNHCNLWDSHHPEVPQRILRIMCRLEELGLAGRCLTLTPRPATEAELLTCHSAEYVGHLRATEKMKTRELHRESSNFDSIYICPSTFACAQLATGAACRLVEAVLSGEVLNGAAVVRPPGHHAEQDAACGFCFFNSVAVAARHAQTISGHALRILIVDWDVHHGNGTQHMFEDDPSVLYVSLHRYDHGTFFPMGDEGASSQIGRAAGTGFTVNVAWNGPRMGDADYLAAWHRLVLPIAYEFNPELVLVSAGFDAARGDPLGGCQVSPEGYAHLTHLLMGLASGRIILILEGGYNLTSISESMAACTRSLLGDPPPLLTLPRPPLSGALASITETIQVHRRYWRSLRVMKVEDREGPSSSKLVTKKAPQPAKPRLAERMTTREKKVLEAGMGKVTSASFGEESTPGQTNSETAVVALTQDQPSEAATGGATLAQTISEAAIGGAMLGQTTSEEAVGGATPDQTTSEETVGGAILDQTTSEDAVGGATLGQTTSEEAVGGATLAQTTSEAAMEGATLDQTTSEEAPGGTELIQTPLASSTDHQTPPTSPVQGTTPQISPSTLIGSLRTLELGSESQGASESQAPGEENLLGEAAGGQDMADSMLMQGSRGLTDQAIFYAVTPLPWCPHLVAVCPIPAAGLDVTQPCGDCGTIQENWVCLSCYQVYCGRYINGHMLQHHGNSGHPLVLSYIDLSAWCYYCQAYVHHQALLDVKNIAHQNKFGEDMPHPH

recombinant human KDAC8 = molecular target: T3, recombinant human KDAC8 (Homo sapiens, UniProt Q9BY41); assay: KDAC inhibition assay, Caliper EZ Reader II; assay type: biochemical; settings: for KDAC Inhibition Activity KDAC8 (% inhibition): % inhibition at 30 μM
T3 construct: purchased BPS Bioscience
T3 sequence (Q9BY41 1-377): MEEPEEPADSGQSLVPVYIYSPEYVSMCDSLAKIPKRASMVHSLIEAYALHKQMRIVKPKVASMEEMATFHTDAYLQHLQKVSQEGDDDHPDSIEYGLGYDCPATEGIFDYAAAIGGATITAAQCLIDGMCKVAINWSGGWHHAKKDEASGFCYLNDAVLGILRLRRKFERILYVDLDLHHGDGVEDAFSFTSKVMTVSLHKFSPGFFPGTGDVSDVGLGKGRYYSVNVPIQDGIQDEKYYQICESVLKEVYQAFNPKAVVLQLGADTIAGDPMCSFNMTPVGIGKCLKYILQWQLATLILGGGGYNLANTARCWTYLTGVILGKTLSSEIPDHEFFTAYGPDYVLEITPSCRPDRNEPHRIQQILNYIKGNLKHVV

recombinant human KDAC1 = molecular target: T4, recombinant human KDAC1 (Homo sapiens, UniProt Q13547); assay: KDAC inhibition assay, Caliper EZ Reader II; assay type: biochemical; settings: for KDAC Inhibition Activity KDAC1 (% inhibition): % inhibition at 30 μM
T4 construct: purchased BPS Bioscience
T4 sequence (Q13547 whole entry): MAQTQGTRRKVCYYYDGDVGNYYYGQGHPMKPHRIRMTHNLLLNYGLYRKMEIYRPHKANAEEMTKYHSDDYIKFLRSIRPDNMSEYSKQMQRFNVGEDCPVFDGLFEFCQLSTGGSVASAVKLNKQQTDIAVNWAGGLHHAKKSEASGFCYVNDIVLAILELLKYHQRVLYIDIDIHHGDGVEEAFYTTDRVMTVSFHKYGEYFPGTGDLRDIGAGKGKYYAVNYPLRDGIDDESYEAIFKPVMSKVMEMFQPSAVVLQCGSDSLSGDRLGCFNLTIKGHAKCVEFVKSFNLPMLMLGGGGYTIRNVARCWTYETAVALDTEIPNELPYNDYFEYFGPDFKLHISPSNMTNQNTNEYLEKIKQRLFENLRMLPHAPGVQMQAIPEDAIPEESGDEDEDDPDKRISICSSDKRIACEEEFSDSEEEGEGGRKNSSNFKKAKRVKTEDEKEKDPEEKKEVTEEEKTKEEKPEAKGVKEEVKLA

[2] = system: Resting CD4+ T cells isolated from a patient fully suppressed on antiretroviral therapy; assay: Reactivation of virus in resting CD4+ T cells of a suppressed patient (HIV-1 p24 ELISA); assay type: cell-based; settings: 1 μM, 48 hours, then co-culture with MOLT4/CCR5 cells 7 days; preliminary data
Text: Cells were washed and co-cultured with MOLT4/CCR5 cells for 7 days. R Cellular supernatants were collected for HIV-1 p24 ELISA. N.R—non reactive.

KDAC1, KDAC2, and KDAC3 = settings: background statement; cited from earlier work

KDAC Inhibition Activity KDAC3 (% inhibition) (recombinant human KDAC3) | KDAC Inhibition Activity KDAC6 (% inhibition) (recombinant human KDAC6) | KDAC Inhibition Activity KDAC8 (% inhibition) (recombinant human KDAC8) [%] | KDAC Inhibition Activity KDAC1 (% inhibition) (recombinant human KDAC1) | Molecule | IC50 (recombinant human KDAC3; 10-point dose curve from 30 μM, read-out: KDAC Inhibition Activity (IC50) KDAC3) [nM] | IC50 (recombinant human KDAC3; read-out: KDAC Inhibition Activity (pIC50) KDAC3 (converted)) [nM] | EC50 [1] [nM] | IC50 (recombinant human KDAC6; 10-point dose curve from 30 μM) [nM] | inhibition at 30 µM (recombinant human KDAC8) [%] | IC50 (recombinant human KDAC8; 10-point dose curve from 30 μM) [nM] | IC50 (recombinant human KDAC1; 10-point dose curve from 30 μM) [nM] | reactivation of virus from latency, HIV-1 p24 ELISA in culture supernatants [2] | potency against KDAC1, KDAC2, and KDAC3 (KDAC1, KDAC2, and KDAC3) | IC50 (recombinant human KDAC1) [nM]
 |  |  |  | CC(=O)SCC/C=C/[C@@H]1CC(=O)NCc2cc(ccn2)C2=N[C@@](C)(CS2)C(=O)N[C@@H](C(C)C)C(=O)O1 [SD-L-256, reference compound] | 470 | 479 | 1600 | 1610 | 39 | > 30000 | 3480 |  |  | 
 |  |  |  | CCCCCCCC(=O)SCC/C=C/[C@@H]1CC(=O)NCc2nc(cs2)C2=N[C@@](C)(CS2)C(=O)N[C@@H](C(C)C)C(=O)O1 [Largazole, largazole] |  |  | 150 |  | 28 |  |  | able to reactivate virus from latency | picomolar range | 2330
Not active | 14% | 12 | Not active | Cyclo-Asp(^DPro-Pro-Val)-NHCH2CH2SH [Compound 5a] |  |  |  |  |  |  |  |  |  | 
Not active | Not active | 23 | Not active | Cyclo-Asp(Pro-^DPro-Val)-NHCH2CH2CH2S(═O)2CH3 [Compound 21a] |  |  |  |  |  |  |  |  |  | 
